Here are results for 24 compounds from patent US11779559B2, “Compositions for treating fungal and bacterial biofilms and methods of using the same” (priority 2017, dated 2023).

Molecules are shown by their SMILES. Like-named read-outs stand apart in the source and are kept apart here.

Test [1] has as its system S. aureus. As to the kind of experiment: Disruption biofilm assay, bacterial. The conditions noted are these: for activation at 1 % / inhibition at 1 %: Staphylococcus aureus; for activation at 1 %: read-out: Promote B Biofilm; for inhibition at 1 %: 24 h, read-out: Reduce B Biofilm. It is filed as cell-based, Staphylococcus aureus. The procedure: (§1) Two types of biofilm assays were performed: a sustained inhibition assay and a disruption assay. The sustained inhibition assay assesses the compound's ability to prevent biofilm development throughout all stages of biofilm formation, while the disruption assay assesses the compound's ability to break up an existing mature biofilm. These assays are described in detail in the following article: Lohse, M. B., Gulati, M., Valle Arevalo, A., Fishburn, A., Johnson, A. D., and Nobile, C. […] Antimicrobial Agents and Chemotherapy 61: e02749-16.
(§2) All bacterial biofilm solutions were prepared in Trypic Soy Broth (TSB), supplemented with 1% glucose (henceforth referred to as TSB-G). All subsequent procedures were performed in a manner that maintained sterility. A solution of each amino acid to be tested was prepared in weight to volume concentrations ranging from 0.1-5.0%. Amino acids were also tested in combinations. Compound solutions were homogenized with gentle agitation in the dark (4° C., 24 hours) before use.
(§3) Bacterial strains were streaked on Blood Agar plates (5% sheep blood in Tryptic Soy Agar) and incubated at 37° C. for 24 hours. A single colony from each strain to be tested was inoculated in a TSB broth and grown for 12 hours, at 37° C. with shaking (225 rpm). For the bacterial biofilm inhibition assays, 1 μL of saturated overnight cell culture was added to either 80 μL of TSB-G, or TSB-G supplemented with the amino acid compound solution to be tested, in a 384-well plate. The cells were allowed to adhere to the plate for 60 minutes at 37° C. without shaking. The media was carefully aspirated and 80 μL of TSB-G, or TSB-G supplemented with the amino acid compound solution was added to the plate. The plate was further incubated for 24 hours at 37° C. without shaking. Media was carefully aspirated and the biofilm was measured by optical density at 600 nm. Eight or twelve replicates were performed for each tested condition and the reported values are normalized to the control (TSB-G media only). For the bacterial biofilm disruption assays, 80 μL of TSB-G was added to the plate, along with 1 μL of overnight cell culture. The cells were allowed to adhere to the plate for 60 minutes at 37° C. with no shaking. The media was carefully aspirated and 80 μL of TSB-G was added to the plate. The plate was further incubated for 24 hours at 37° C. with no shaking. Media was carefully aspirated from the mature biofilm and 80 μL of TSB-G, or TSB-G supplemented with the amino acid to be tested, was gently added to the plate. The plate was further incubated for 24 hours at 37° C. without shaking. Media was aspirated and the biofilm was measured by optical density at 600 nm. Twelve replicates were performed for each tested condition and the reported values are normalized to the control (TSB-G media only).

For another test, the system named is bacterial biofilms. Kind of test: Biofilm assays (sustained inhibition and/or disruption), bacterial biofilms. It is filed as cell-based. As to conditions: in at least one of the two biofilm assays; for Anti-biofilm effect against bacterial biofilms (reduction): administered individually at about 0.1 to about 5.0% weight to volume. Here is the method: (§4) Two types of biofilm assays were performed: a sustained inhibition assay and a disruption assay. The sustained inhibition assay assesses the compound's ability to prevent biofilm development throughout all stages of biofilm formation, while the disruption assay assesses the compound's ability to break up an existing mature biofilm. These assays are described in detail in the following article: Lohse, M. B., Gulati, M., Valle Arevalo, A., Fishburn, A., Johnson, A. D., and Nobile, C. J. (2017) Assessment and optimizations of Candida albicans in vitro biofilm assays. Antimicrobial Agents and Chemotherapy 61: e02749-16.
(§5) For fungal biofilm assays, all solutions were prepared in RPMI 1640 medium. All bacterial biofilm solutions were prepared in Trypic Soy Broth (TSB), supplemented with 1% glucose (henceforth referred to as TSB-G). All subsequent procedures were performed in a manner that maintained sterility. A solution of each amino acid to be tested was prepared in weight to volume concentrations ranging from 0.1-5.0%. Amino acids were also tested in combinations. Compound solutions were homogenized with gentle agitation in the dark (4° C., 24 hours) before use.
(§6) All biofilm assays were performed using 384-well non-tissue culture treated polystyrene plates. The fungal species tested are as follows: Candida albicans, Candida guilhermondii, Candida parapsilosis, Candida glabrata, Candida tropicalis, Candida dubliniensis, and Candida auris. The bacterial species tested are as follows: Staphylococcus aureus (standard wild type and methicillin-resistant strain USA300), Escherichia coli, Pseudomonas aeruginosa and Staphylococcus epidermidis.
as §3

In test [2] the test system is S. aureus. Kind of test: Sustained inhibition biofilm assay, bacterial. The class given is cell-based, Staphylococcus aureus. As to conditions: for activation at 1 %: Staphylococcus aureus, read-out: Promote B Biofilm. Here is the method:
as §1, §2, §3

Test [3] deals with fungal and bacterial biofilms. As to the kind of experiment: Biofilm assays (sustained inhibition and disruption), fungal and bacterial biofilms. It is filed as cell-based. The conditions noted are these: for Effect on bacterial or fungal biofilms in both assays: sustained inhibition and disruption. The procedure: as §4, §5, §6
Fungal strains were streaked on Yeast Peptone Dextrose (YPD) agar plates and incubated at 30° C. for 48 hours. A single colony from each strain to be tested was inoculated into YPD broth and grown for 12 hours, at 30° C., shaking at 225 rpm. For the fungal biofilm inhibition assay, 1 μl of saturated overnight cell culture was added to either 80 μL of RPMI-1640 or RPMI-1640 supplemented with the amino acid compound solution to be tested, in a 384-well plate. The cells were allowed to adhere to the plate for 90 minutes at 37° C. with shaking (350 rpm). Loosely bound cells were washed once with phosphate buffered saline (PBS) and 80 ul of RPMI-1640, or RPMI-1640 supplemented with the amino acid compound solution was added to the plate. The plate was further incubated for 24 hours at 37° C. with shaking (350 rpm). Media was carefully aspirated and the biofilm was measured by optical density at 600 nm. Twelve replicates were performed for each tested condition and the reported values are normalized to the control (RPMI-1640 media only). For the fungal biofilm disruption assays, 80 μL of RPMI-1640 was added to the plate, along with 1 μL of overnight cell culture. The cells were allowed to adhere to the plate for 90 minutes at 37° C. with shaking (350 rpm). Loosely bound cells were washed once with PBS and 80 μL of RPMI-1640 was added to the plate. The plate was further incubated for 24 hours at 37° C. with shaking (350 rpm). Media was carefully aspirated from the mature biofilm and 80 μL of RPMI-1640, or RPMI-1640 supplemented with the amino acid compound solution to be tested, was gently added to the plate. The plate was further incubated for 24 hours at 37° C. with shaking (350 rpm). Media was carefully aspirated and the biofilm was measured by optical density at 600 nm. Twelve replicates were performed for each tested condition and the reported values are normalized to the control (RPMI-1640 media only).
Bacterial strains were streaked on Blood Agar plates (5% sheep blood in Tryptic Soy Agar) and incubated at 37° C. for 24 hours. A single colony from each strain to be tested was inoculated in a TSB broth and grown for 12 hours, at 37° C. with shaking (225 rpm).

[4] abbreviates: disruption assay, S. aureus, 1% amino acid (unless specifically noted), p≤0.001.
The mark [5] stands for this setting: sustained inhibition assay, S. aureus, 1% amino acid (unless specifically noted), p≤0.001.

For `NCCOP(=O)(O)O` [Phosphoethanolamine, 0-phosphoethanolamine], the “Reduce B Biofilm” value in the test on S. aureus [1] (setting [4]) and with S. aureus [2] (setting [5]) was “● (a single dot [ie. •] signifies minor effect (from about 10 to about 30% change))” each time. Besides, the “Anti-biofilm effect against bacterial biofilms (reduction)” value (“Anti-biofilm effect … (reduction)” for short) in the test with bacterial biofilms was “less than twofold”.
Take `N[C@@H](Cc1ccccc1)C(=O)O` [Phenylalanine, L-phenylalanine]: the activation at 1 % in the test with S. aureus [1] (setting [4]) and with S. aureus [2] (setting [5]) was 10 to 30% in each case. Also, the “Effect on bacterial biofilm growth” value with bacterial biofilms is “support (improve) bacterial biofilm growth”.
As to `CCC(N)C(=O)O` (stereo not drawn) [2 Aminobutyric Acid, 2-aminobutyric acid], in test [3], the “Effect on bacterial or fungal biofilms in both assays” value (from here on “Effect … in both assays”) is “neutral”.
`Cn1cnc(C[C@H](N)C(=O)O)c1` [1-Methylhistidine, 1-methyl-L-histidine]: in test [3], the “Effect … in both assays” value was “neutral”.
Take `NC(=O)NCCC[C@H](N)C(=O)O` [Citrulline, L-citrulline]: the activation at 1 % with S. aureus [1] and in the test with S. aureus [2] was 10 to 30% throughout. For the same compound, the “Effect on bacterial biofilm growth” value with bacterial biofilms was “support (improve) bacterial biofilm growth”.
Take `NCCC(=O)O` [Beta-Alanine, Beta-alanine]: the “Anti-biofilm effect … (reduction)” value with bacterial biofilms is recorded as “less than twofold”. For the same compound, in the test on S. aureus [2] (setting [5]), the “Reduce B Biofilm” value is “● (a single dot [ie. •] signifies minor effect (from about 10 to about 30% change))”.
Consider `O=C(O)[C@@H]1C[C@@H](O)CN1` [Hydroxyproline, Trans-4-hydroxy-L-proline], for which the inhibition at 1 % in the test with S. aureus [1] fell in the range of 10 to 30%. Moreover, the “Anti-biofilm effect … (reduction)” value in the test with bacterial biofilms is on record as “less than twofold”. The “Reduce B Biofilm” value in the test on S. aureus [2] (setting [5]) is “● (a single dot [ie. •] signifies minor effect (from about 10 to about 30% change))”.
`N[C@@H](CO)C(=O)O` [Serine, L-serine]: the activation at 1 % with S. aureus [1] (setting [4]) and in the test on S. aureus [2] (setting [5]) was 10 to 30% throughout. Also, the “Effect on bacterial biofilm growth” value in the test with bacterial biofilms is reported as “support (improve) bacterial biofilm growth”.
`NCCC[C@H](N)C(=O)O` [Ornithine, L-ornithine]: the activation at 1 % with S. aureus [1] (setting [4]) and in the test with S. aureus [2] (setting [5]) was 10 to 30% throughout. Moreover, the “Effect on bacterial biofilm growth” value in the test with bacterial biofilms was “support (improve) bacterial biofilm growth”.
On to `NC(CCCC(=O)O)C(=O)O` (stereo not drawn) [2 Aminoadipic Acid, 2-aminoadipic acid], for which the inhibition at 1 % in the test with S. aureus [1] (setting [4]) is 10 to 30%. In the test with bacterial biofilms, the “Anti-biofilm effect … (reduction)” value is listed as “less than twofold”. In addition, in the test with S. aureus [2] (setting [5]), the “Reduce B Biofilm” value was “● (a single dot [ie. •] signifies minor effect (from about 10 to about 30% change))”.
`C[C@@H](O)[C@H](N)C(=O)O` [Threonine, L-threonine]: in the test with bacterial biofilms, the “Effect on bacterial biofilm growth” value is given as “support (improve) bacterial biofilm growth”. For the same compound, the activation at 1 % in the test with S. aureus [2] (setting [5]) was in the range of 10 to 30%.
On to `CC(C)C[C@H](N)C(=O)O` [Leucine, L-leucine], for which the activation at 1 % in the test with S. aureus [1] (setting [4]) and in the test on S. aureus [2] (setting [5]) was 10 to 30% throughout. Besides, the “Effect on bacterial biofilm growth” value with bacterial biofilms is “support (improve) bacterial biofilm growth”.
On to `CSCC[C@H](N)C(=O)O` [Methionine, L-methionine], for which, in the test on bacterial biofilms, the “Effect on bacterial biofilm growth” value is on record as “support (improve) bacterial biofilm growth”. Also, the activation at 1 % in the test with S. aureus [2] (setting [5]) fell in the range of 10 to 30%.
For `CC[C@H](C)[C@H](N)C(=O)O` [Isoleucine, L-isoleucine], in the test with S. aureus [1] (setting [4]), the activation at 1 % lay within 10 to 30%. In the test on bacterial biofilms, the “Effect on bacterial biofilm growth” value is listed as “support (improve) bacterial biofilm growth”.
For the compound `N[C@@H](Cc1c[nH]c2ccccc12)C(=O)O` [Tryptophan, L-tryptophan], the “Effect … in both assays” value in test [3] was “neutral”.
Consider `NC(=O)C[C@H](N)C(=O)O` [Asparagine, L-asparagine], for which the “Effect on bacterial biofilm growth” value in the test on bacterial biofilms is recorded as “support (improve) bacterial biofilm growth”. Moreover, the activation at 1 % in the test on S. aureus [2] (setting [5]) lay within 10 to 30%.
As to `NCCCC[C@H](N)C(=O)O` [Lysine, L-lysine], the activation at 1 % with S. aureus [1] and in the test on S. aureus [2] was 10 to 30% throughout. In the test on bacterial biofilms, the “Effect on bacterial biofilm growth” value is “support (improve) bacterial biofilm growth”.
Turning to `N[C@@H](Cc1c[nH]cn1)C(=O)O` [Histidine, L-histidine], the “Effect … in both assays” value in test [3] is “neutral”.
Regarding `NCC(=O)O` [Glycine, L-glycine], the activation at 1 % with S. aureus [1] (setting [4]) and in the test with S. aureus [2] (setting [5]) was 10 to 30% throughout. The “Effect on bacterial biofilm growth” value in the test on bacterial biofilms is “support (improve) bacterial biofilm growth”.
As to `N[C@@H](CCSC[C@H](N)C(=O)O)C(=O)O` [Cystathionine (0.2%), L-cystathionine], in the test on S. aureus [1] (setting [4]), the inhibition at 1 % was 10 to 30%.
Regarding `OCC(O)CO` [glycerol], the Effect on biofilms entry in test [3] (single component on its own) is given as “not found to have antibiofilm effects”.
Regarding `C[C@H](N)C(=O)O` [Alanine, L-alanine], the activation at 1 % in the test with S. aureus [1] (setting [4]) was 10 to 30%. In addition, the “Effect on bacterial biofilm growth” value with bacterial biofilms is on record as “support (improve) bacterial biofilm growth”.
With `N=C(N)NCCC[C@H](N)C(=O)O` [Arginine, L-arginine], the activation at 1 % in the test with S. aureus [1] and with S. aureus [2] was 10 to 30% in each case. In the test with bacterial biofilms, the “Effect on bacterial biofilm growth” value is on record as “support (improve) bacterial biofilm growth”.
Take `NCCS(=O)(=O)O` [Taurine, L-taurine]: the activation at 1 % in the test with S. aureus [1] (setting [4]) and in the test with S. aureus [2] (setting [5]) was 10 to 30% each time. For the same compound, in the test on bacterial biofilms, the “Effect on bacterial biofilm growth” value is “support (improve) bacterial biofilm growth”.
